# Laboratory results reported in US8440612B2, “Controlling giardiosis” (Bayer Intellectual Property GmbH, priority 2008, dated 2013).
# “And” between values parts separate entries of the source, which are not always exact repeats. Equal values may be shown once.
# System: Giardia duodenalis
# Assay: Giardia cyst excretion in infected Beagle puppies, oral dose on three successive days (Biological Example 2)
# Format: in vivo
# Method: Method: The quantitative determination of the cyst excretion was performed using a modified version of Hewlett (18): 4 g faeces were dissolved in 100 ml of water, sieved and allowed to sediment. The sediment was applied to a 1 M sucrose gradient (specific gravity 1.13), and the cysts, which were concentrated at the sucrose/water boundary layer after the centrifugation were pipetted off. After a wash step followed by centrifugation, the cysts in the pellet were counted. To this end, an aliquot of the pellet was counted under the microscope, and the number of cysts per g faeces was calculated.
# Beagle puppies aged 11-15 weeks which had at least 2 weeks to settle in the animal centre before being infected were infected orally with 50 000 Giardia duodenalis cysts before the beginning of the study. The cysts for the infection were obtained with the aid of a sucrose gradient from the faeces of dogs which excreted Giardia cysts and stored at 4 degrees centigrade in Bacto-Casitone medium for no longer than 2 weeks. 18 puppies which excreted Giardia cysts were included in the study and kept in individual cages in order to collect the daily total faeces. The quantitative determination of the cyst excretion was performed as an […], with the modification that the aliquot of the pellet was counted under the microscope with the aid of a Fuchs-Rosenthal hematocytometer. The quantitative determination of the cyst excretion was performed for 4 days before the treatment (day −3 to 0), and the puppies were divided randomly into three groups, taking into consideration the cyst excretion. […] The 6 dogs of the control group remained untreated. The quantitative determination of the cyst excretion was continued from day 1 to day 8 after the treatment.
smiles,measurement,setting,value
COC(=O)Nc1nc2ccc(Sc3ccccc3)cc2[nH]1 [fenbendazole],Activity,"calculated activity on cyst excretion versus infected untreated control, day 3 to 8, 50 mg/kg oral on days 0, 1 and 2, 50 mg/kg",48.3%
same,Σ Giardia cyst excretion D0,"group line Σ (6 dogs), D0, day of treatment, 50 mg/kg oral on days D0, D1 and D2",20274 cysts per g faeces
same,Σ Giardia cyst excretion D1,"group line Σ (6 dogs), D1, day of treatment, 50 mg/kg oral on days D0, D1 and D2",17010 cysts per g faeces
same,Σ Giardia cyst excretion D2,"group line Σ (6 dogs), D2, day of treatment, 50 mg/kg oral on days D0, D1 and D2",1735 cysts per g faeces
same,Σ Giardia cyst excretion D3,"group line Σ (6 dogs), D3, after the treatment, 50 mg/kg oral on days D0, D1 and D2",13929 cysts per g faeces
same,Σ Giardia cyst excretion D4,"group line Σ (6 dogs), D4, after the treatment, 50 mg/kg oral on days D0, D1 and D2",12781 cysts per g faeces
same,Σ Giardia cyst excretion D5,"group line Σ (6 dogs), D5, after the treatment, 50 mg/kg oral on days D0, D1 and D2",7555 cysts per g faeces
same,Σ Giardia cyst excretion D6,"group line Σ (6 dogs), D6, after the treatment, 50 mg/kg oral on days D0, D1 and D2",5494 cysts per g faeces
same,Σ Giardia cyst excretion D7,"group line Σ (6 dogs), D7, after the treatment, 50 mg/kg oral on days D0, D1 and D2",12913 cysts per g faeces
same,Σ Giardia cyst excretion D8,"group line Σ (6 dogs), D8, after the treatment, 50 mg/kg oral on days D0, D1 and D2",4795 cysts per g faeces
same,Σ Giardia cyst excretion D−1,"group line Σ (6 dogs), day −1, before treatment, 50 mg/kg oral on days D0, D1 and D2",58990 cysts per g faeces
same,Σ Giardia cyst excretion D−2,"group line Σ (6 dogs), day −2, before treatment, 50 mg/kg oral on days D0, D1 and D2",22257 cysts per g faeces
same,Σ Giardia cyst excretion D−3,"group line Σ (6 dogs), day −3, before treatment, 50 mg/kg oral on days D0, D1 and D2",29963 cysts per g faeces
same,Σ Giardia cyst excretion Day 3 to 8,"group, after treatment, 50 mg/kg oral on days 0, 1 and 2",9578 cysts per g faeces
same,Σ Giardia cyst excretion Day: −3 to 0,"group, before treatment, 50 mg/kg oral on days 0, 1 and 2",32871 cysts per g faeces
same,Giardia cyst excretion D0,"individual dogs, D0, day of treatment, 50 mg/kg oral on days D0, D1 and D2, 50 mg/kg",49400 cysts per g faeces and 28559 cysts per g faeces and 639 cysts per g faeces and 2719 cysts per g faeces and 17037 cysts per g faeces and 23290 cysts per g faeces
same,Giardia cyst excretion D1,"individual dogs, D1, day of treatment, 50 mg/kg oral on days D0, D1 and D2, 50 mg/kg",67200 cysts per g faeces and 14596 cysts per g faeces and 872 cysts per g faeces and 12488 cysts per g faeces and 6178 cysts per g faeces and 723 cysts per g faeces
same,Giardia cyst excretion D2,"individual dogs, D2, day of treatment, 50 mg/kg oral on days D0, D1 and D2, 50 mg/kg",0 cysts per g faeces (2×) and 5980 cysts per g faeces and 3386 cysts per g faeces and 490 cysts per g faeces and 552 cysts per g faeces
same,Giardia cyst excretion D3,"individual dogs, D3, after the treatment, 50 mg/kg oral on days D0, D1 and D2, 50 mg/kg",67109 cysts per g faeces and 7043 cysts per g faeces and 961 cysts per g faeces and 3075 cysts per g faeces and 0 cysts per g faeces and 5388 cysts per g faeces
same,Giardia cyst excretion D4,"individual dogs, D4, after the treatment, 50 mg/kg oral on days D0, D1 and D2, 50 mg/kg",49423 cysts per g faeces and 652 cysts per g faeces and 439 cysts per g faeces and 12038 cysts per g faeces and 0 cysts per g faeces and 14133 cysts per g faeces
same,Giardia cyst excretion D5,"individual dogs, D5, after the treatment, 50 mg/kg oral on days D0, D1 and D2, 50 mg/kg",3116 cysts per g faeces and 18725 cysts per g faeces and 4432 cysts per g faeces and 0 cysts per g faeces (2×) and 19057 cysts per g faeces
same,Giardia cyst excretion D6,"individual dogs, D6, after the treatment, 50 mg/kg oral on days D0, D1 and D2, 50 mg/kg",4635 cysts per g faeces and 7546 cysts per g faeces and 5594 cysts per g faeces and 3691 cysts per g faeces and 0 cysts per g faeces and 11495 cysts per g faeces
same,Giardia cyst excretion D7,"individual dogs, D7, after the treatment, 50 mg/kg oral on days D0, D1 and D2, 50 mg/kg",17474 cysts per g faeces and 20780 cysts per g faeces and 260 cysts per g faeces and 18056 cysts per g faeces and 251 cysts per g faeces and 20657 cysts per g faeces
same,Giardia cyst excretion D8,"individual dogs, D8, after the treatment, 50 mg/kg oral on days D0, D1 and D2, 50 mg/kg",0 cysts per g faeces (2×) and 5555 cysts per g faeces and 5968 cysts per g faeces and 10875 cysts per g faeces and 6370 cysts per g faeces
same,Giardia cyst excretion D−1,"individual dogs, day −1, before treatment, 50 mg/kg oral on days D0, D1 and D2, 50 mg/kg",243143 cysts per g faeces and 56014 cysts per g faeces and 2349 cysts per g faeces and 16328 cysts per g faeces and 14744 cysts per g faeces and 21360 cysts per g faeces
same,Giardia cyst excretion D−2,"individual dogs, day −2, before treatment, 50 mg/kg oral on days D0, D1 and D2, 50 mg/kg",47754 cysts per g faeces and 23808 cysts per g faeces and 26526 cysts per g faeces and 18113 cysts per g faeces and 7230 cysts per g faeces and 10109 cysts per g faeces
